≈ marks a conversion by molar mass, not a printed value. Where a name gives a salt, the structure may show the parent alone.
Experiments:
Experiment in all cases: Antibacterial activity, microbroth dilution method (MIC)
[1] = tested on: Gram-positive Staphylococcus aureus (S. aureus) 29213; type: cell-based; settings: Staphylococcus aureus, Gram-positive S. aureus 29213
How it was run: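 Broth microdilution against S. aureus 29213, E. coli 25922 and hypersensitive E. coli BAS849. MIC in μg/mL is the lowest drug concentration preventing macroscopically visible growth under test conditions.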

[2] = tested on: super sensitive Gram-negative Escherichia coli (E. coli) BAS849; type: cell-based; settings: Escherichia coli; super sensitive Gram-negative E. coli BAS849; microbroth dilution; read-out: MIC, E. coli BAS849
How it was run: (§1)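 Microbroth dilution was used. MIC, in μg/mL, is the lowest drug concentration preventing macroscopically visible growth under the test conditions.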

[3] = tested on: control Gram-negative E. coli 25922 strain; type: cell-based, Escherichia coli; settings: Escherichia coli
How it was run: as §1

| Structure (SMILES) | MIC [1] [µg/mL] | MIC [2] [µg/mL] | MIC [3] [µg/mL] |
| --- | --- | --- | --- |
| Cn1c2c(cc(C(=O)O)c1=O)CC=Cc1cc3c(ccn3C)cc1-2 [Cpd 130, 1,9-dimethyl-2-oxo-1,2,5,9-tetrahydropyrido[3′,2′:6,7]cyclohepta[1,2-f]indole-3-carboxylic acid] | 12.5 to 150 (≈ 39 to 468 µM) | < 1 | 3.5 to 12.5 (≈ 10.9 to 39 µM) |
| CC1Oc2ccccc2-c2[nH]c(=O)c(C(=O)O)cc21 (stereo not drawn) [Cpd 73, 5-methyl-2-oxo-2,5-dihydro-1H-chromeno[4,3-b]pyridine-3-carboxylic acid] | 12.5 to 150 (≈ 48.6 to 583 µM) | 12.5 to 150 (≈ 48.6 to 583 µM) | 12.5 to 150 (≈ 48.6 to 583 µM) |
| CC(CO)NCc1cc2cc3c(cc2n1C)OCCc1c-3[nH]c(=O)c(C(=O)O)c1O.Cl (stereo not drawn) [Cpd 178, 4-hydroxy-10-(((1-hydroxypropan-2-yl)amino)methyl)-9-methyl-2-oxo-2,5,6,9-tetrahydro-1H-pyrido[2′,3′:4,5]oxepino[3,2-f]indole-3-carboxylic acid hydrochloride] | 12.5 to 150 | < 1 | 12.5 to 150 |
| Cl.Cn1c(CN2CCC(O)CC2)cc2cc3c(cc21)CCCc1c-3[nH]c(=O)c(C(=O)O)c1O [Cpd 28, 4-hydroxy-10-((4-hydroxypiperidin-1-yl)methyl)-9-methyl-2-oxo-1,2,5,6,7,9-hexahydropyrido[3′,2′:6,7]cyclohepta[1,2-f]indole-3-carboxylic acid hydrochloride] | 3.5 to 12.5 | < 1 | 1 to 3.5 |
| CCCCCNCc1cc2cc3c(cc2n1C)CCCc1c-3[nH]c(=O)c(C(=O)O)c1O.Cl [Cpd 137, 4-hydroxy-9-methyl-2-oxo-10-((pentylamino)methyl)-1,2,5,6,7,9-hexahydropyrido[3′,2′:6,7]cyclohepta[1,2-f]indole-3-carboxylic acid hydrochloride] | 3.5 to 12.5 | < 1 | < 1 |
| Cl.O=C(O)c1c(O)c2c([nH]c1=O)-c1ccc(NC3CCNCC3)cc1CCC2 [Cpd 118, 4-hydroxy-2-oxo-9-(piperidin-4-ylamino)-2,5,6,7-tetrahydro-1H-benzo[6,7]cyclohepta[1,2-b]pyridine-3-carboxylic acid hydrochloride] | 12.5 to 150 | 12.5 to 150 | 12.5 to 150 |
| CN(C)c1ccc2c(c1)CCCc1cc(C(=O)O)c(=O)[nH]c1-2 [Cpd 2, 9-(dimethylamino)-2-oxo-2,5,6,7-tetrahydro-1H-benzo[6,7]cyclohepta[1,2-b]pyridine-3-carboxylic acid] | 12.5 to 150 (≈ 41.9 to 503 µM) | < 1 | 12.5 to 150 (≈ 41.9 to 503 µM) |
| O=C(O)c1c(O)c2c([nH]c1=O)-c1ccc(N[C@@H]3CC[C@H]4CNC[C@H]43)cc1OCC2 [Cpd 166, 4-hydroxy-9-(((cis)-octahydrocyclopenta[c]pyrrol-4-yl)-(cis)-amino)-2-oxo-1,2,5,6-tetrahydrobenzo[2,3]oxepino[4,5-b]pyridine-3-carboxylic acid hydrochloride] | 12.5 to 150 | 12.5 to 150 | 12.5 to 150 |
| CC1COc2cc(N3C[C@@H]4[C@H](C3)[C@H]4N(Cc3ccccc3)Cc3ccccc3)ccc2-c2[nH]c(=O)c(C(=O)O)c(O)c21 (stereo partly drawn) [Cpd 85, 9-((cis,cis)-6-(dibenzylamino)-3-azabicyclo[3.1.0]hexan-3-yl)-4-hydroxy-5-methyl-2-oxo-1,2,5,6-tetrahydrobenzo[2,3]oxepino[4,5-b]pyridine-3-carboxylic acid hydrochloride] | 12.5 to 150 | 12.5 to 150 | 12.5 to 150 |
| Cl.Cn1c(CN2CCCCC2)cc2cc3c(cc21)CCCc1c-3[nH]c(=O)c(C(=O)O)c1O [Cpd 40, 4-hydroxy-9-methyl-2-oxo-10-(piperidin-1-ylmethyl)-1,2,5,6,7,9-hexahydropyrido[3′,2′:6,7]cyclohepta[1,2-f]indole-3-carboxylic acid hydrochloride] | 3.5 to 12.5 | < 1 | 1 to 3.5 |
| CN(C)CCNCc1cc2cc3c(cc2n1C)CCCc1c-3[nH]c(=O)c(C(=O)O)c1O.Cl.Cl [Cpd 142, 10-(((2-(dimethylamino)ethyl)amino)methyl)-4-hydroxy-9-methyl-2-oxo-1,2,5,6,7,9-hexahydropyrido[3′,2′:6,7]cyclohepta[1,2-f]indole-3-carboxylic acid dihydrochloride] | 12.5 to 150 | < 1 | 3.5 to 12.5 |
| CNCc1cc2cc3c(cc2n1C)CCCCc1c-3[nH]c(=O)c(C(=O)O)c1O.Cl [Cpd 58, 4-hydroxy-10-methyl-11-((methylamino)methyl)-2-oxo-2,5,6,7,8,10-hexahydro-1H-pyrido[3′,2′:7,8]cycloocta[1,2-f]indole-3-carboxylic acid hydrochloride] | 3.5 to 12.5 | < 1 | < 1 |
| Cl.Cl.Cn1c(CN2CCC(N)CC2)cc2cc3c(cc21)CCCc1c-3[nH]c(=O)c(C(=O)O)c1O [Cpd 29, 10-((4-aminopiperidin-1-yl)methyl)-4-hydroxy-9-methyl-2-oxo-1,2,5,6,7,9-hexahydropyrido[3′,2′:6,7]cyclohepta[1,2-f]indole-3-carboxylic acid dihydrochloride] | 12.5 to 150 | < 1 | 1 to 3.5 |
| CN1CCC[C@@H]2CN(c3ccc4c(c3)CCCc3c-4[nH]c(=O)c(C(=O)O)c3O)C[C@@H]21.Cl [Cpd 115, 4-hydroxy-9-((4aR,7aR)-1-methylhexahydro-1H-pyrrolo[3,4-b]pyridin-6(2H)-yl)-2-oxo-2,5,6,7-tetrahydro-1H-benzo[6,7]cyclohepta[1,2-b]pyridine-3-carboxylic acid hydrochloride] | 12.5 to 150 | 3.5 to 12.5 | 12.5 to 150 |
| Cl.Cn1c(CN2CCC(O)C2)cc2cc3c(cc21)CCCc1c-3[nH]c(=O)c(C(=O)O)c1O (stereo not drawn) [Cpd 51, 4-hydroxy-10-((3-hydroxypyrrolidin-1-yl)methyl)-9-methyl-2-oxo-1,2,5,6,7,9-hexahydropyrido[3′,2′:6,7]cyclohepta[1,2-f]indole-3-carboxylic acid hydrochloride] | 3.5 to 12.5 | < 1 | 1 to 3.5 |
| Cl.Cn1c(CNC2CC2)cc2cc3c(cc21)OCCc1c-3[nH]c(=O)c(C(=O)O)c1O [Cpd 171, 10-((cyclopropylamino)methyl)-4-hydroxy-9-methyl-2-oxo-2,5,6,9-tetrahydro-1H-pyrido[2′,3′:4,5]oxepino[3,2-f]indole-3-carboxylic acid hydrochloride] | 3.5 to 12.5 | < 1 | < 1 |
| COCC(C)NCc1cc2cc3c(cc2n1C)CCCc1c-3[nH]c(=O)c(C(=O)O)c1O.Cl (stereo not drawn) [Cpd 150, 4-hydroxy-10-(((1-methoxypropan-2-yl)amino)methyl)-9-methyl-2-oxo-1,2,5,6,7,9-hexahydropyrido[3′,2′:6,7]cyclohepta[1,2-f]indole-3-carboxylic acid hydrochloride] | 3.5 to 12.5 | < 1 | 1 to 3.5 |
| CN(Cc1ccccc1)[C@H]1[C@@H]2CN(c3ccc4c(c3)CCCc3c-4[nH]c(=O)c(C(=O)O)c3O)C[C@@H]21 [Cpd 10, 9-((cis,cis)-6-(benzyl(methyl)amino)-3-azabicyclo[3.1.0]hexan-3-yl)-4-hydroxy-2-oxo-2,5,6,7-tetrahydro-1H-benzo[6,7]cyclohepta[1,2-b]pyridine-3-carboxylic acid hydrochloride] | 1 to 3.5 | 3.5 to 12.5 | 12.5 to 150 |
| N[C@@H]1[C@H]2CN(c3ccc4c(c3)NCCc3c-4[nH]c(=O)c(C(=O)O)c3O)C[C@@H]12 [Cpd 97, 9-((cis,cis)-6-amino-3-azabicyclo[3.1.0]hexan-3-yl)-4-hydroxy-2-oxo-2,5,6,7-tetrahydro-1H-benzo[b]pyrido[2,3-d]azepine-3-carboxylic acid hydrochloride] | 12.5 to 150 | 1 to 3.5 | 3.5 to 12.5 |
| CNCc1cc2cc3c(cc2n1C)NCCc1c-3[nH]c(=O)c(C(=O)O)c1O.Cl [Cpd 99, 4-hydroxy-9-methyl-10-((methylamino)methyl)-2-oxo-1,2,5,6,7,9-hexahydropyrido[2′,3′:4,5]azepino[3,2-f]indole-3-carboxylic acid hydrochloride] | 12.5 to 150 | 1 to 3.5 | 12.5 to 150 |
| CNCc1cc2cc3c(cc2n1C)C(C)CCc1c-3[nH]c(=O)c(C(=O)O)c1O.Cl (stereo not drawn) [Cpd 62, 4-hydroxy-7,9-dimethyl-10-((methylamino)methyl)-2-oxo-1,2,5,6,7,9-hexahydropyrido[3′,2′:6,7]cyclohepta[1,2-f]indole-3-carboxylic acid hydrochloride] | 12.5 to 150 | 1 to 3.5 | 3.5 to 12.5 |
| Cl.Cn1c(CNCC2CCCO2)cc2cc3c(cc21)CCCc1c-3[nH]c(=O)c(C(=O)O)c1O (stereo not drawn) [Cpd 161, 4-hydroxy-9-methyl-2-oxo-10-((((tetrahydrofuran-2-yl)methyl)amino)methyl)-1,2,5,6,7,9-hexahydropyrido[3′,2′:6,7]cyclohepta[1,2-f]indole-3-carboxylic acid hydrochloride] | 12.5 to 150 | < 1 | 1 to 3.5 |
| CC(=O)NC1CCN(Cc2cc3cc4c(cc3n2C)CCCc2c-4[nH]c(=O)c(C(=O)O)c2O)C1.Cl (stereo not drawn) [Cpd 159, 10-((3-acetamidopyrrolidin-1-yl)methyl)-4-hydroxy-9-methyl-2-oxo-1,2,5,6,7,9-hexahydropyrido[3′,2′:6,7]cyclohepta[1,2-f]indole-3-carboxylic acid hydrochloride] | 12.5 to 150 | < 1 | 3.5 to 12.5 |
| CNC1CCN(c2ccc3c(c2)CCCc2c-3[nH]c(=O)c(C(=O)O)c2O)C1.Cl (stereo not drawn) [Cpd 8, 4-hydroxy-9-(3-(methylamino)pyrrolidin-1-yl)-2-oxo-2,5,6,7-tetrahydro-1H-benzo[6,7]cyclohepta[1,2-b]pyridine-3-carboxylic acid hydrochloride] | 12.5 to 150 | 1 to 3.5 | 3.5 to 12.5 |
